From US11118162B2, “Cytopheresis cartridges and use thereof” (SeaStar Medical, Inc., priority 2010, dated 2021) come the findings set out here.

Assay [1] concerns leukocytes in porcine blood. Nature of the assay: Microscopic flow chamber: leukocyte interaction with polysulfone SCD membrane. The format is cell-based, pig. An excerpt: A custom microscopic flow chamber system was set up to enable microscopic analysis of leukocyte interaction with the SCD membrane. The flow chamber consisted of a polycarbonate housing with an inlet and outlet for perfusion. A polysulfone membrane was affixed to the polycarbonate block with a gasket which directed shear flow. The thickness of the gasket (100 μm) along with the length (2 cm) and the width of the channel (1.5 mm) determined the volume of the flow chamber. Microscopic imaging was accomplished through an optical window made up of a cover glass affixed to the bottom of the polycarbonate block. Either isolated blood or purified leukocytes were used for this study.
Isolated blood was prone to activation from excessive handling. […] Blood passed through the flow chamber at a rate of 20 μL/min with calculated shear forces between 1-10 dynes/cm^2. […]
Microscopic analysis of cell capture events was accomplished using either a Zeiss Axiovert 200M or Axio-Observer epifluorescence microscope equipped with a microscope stage-top incubator to control environmental temperature and CO2 content. Fluorescence images were acquired with either a Zeiss MRm3 or an Icc1 camera at a frequency of 1 frame/second for 5 minutes, for analysis of leukocyte/membrane interaction, and at 1 frame/minute for 1 hour sequences, for analysis of long term leukocyte attachment. […]

In assay [2] the test system is leukocytes in human whole blood. The assay can be described thus: In vitro leukocyte activation in heparinized human whole blood. It is filed as cell-based. The settings on record: for Lactoferrin: n = 4; for Elastase: n = 5. The procedure:
Heparinized human whole blood was added to tubes with or without lipopolysaccharide (LPS) (10 μg/mL) or formyl-Methionyl-Leucyl-Phenylalanine (fMLF, 50 nM). […] The release of IL-6, IL-8, or IL-10 was measured using commercially available ELISA kits from R&D Systems. The release of elastase was measured using a commercially available ELISA kit from Bender MedSystems. The release of lactoferrin was measured using a commercially available ELISA kit from EMD Chemicals. […] Samples were incubated for various times at 37° C. and 5% CO2. CD11b activation was measured using an FITC-conjugated mouse anti-human antibody (AbD Serotech) and evaluated on an Accuri C6 flow cytometer.

On to `O=C(O)CC(O)(CC(=O)O)C(=O)O` [Citrate], for which the “Persistent leukocyte adhesion events” value in assay [1] (1 hour sequences, LPS and citrate versus LPS only) is listed as “far fewer”. Besides, in assay [1] (LPS and citrate treated blood), the Rolling events result is given as “observed increase”.
On to heparin, for which, in assay [2] (Baseline), the Lactoferrin amounted to 8.47 mg/mL and the Elastase is on record as 2.73 mg/mL. Moreover, in assay [2] (Stimulated (LPS, fMLF)), the Lactoferrin is 12.42 mg/mL and the Elastase is 4.52 mg/mL.
